Here are results for four compounds from patent publication US10358449B2, “Xanthine derivative” (priority 2015, dated 2019).

One series relates to normal mice (C57BL/6J). Briefly: Oral glucose tolerance test of normal mice. Further details: AUC0-120 min: unit not given beside the values. Format: in vivo, mouse. As for the experimental part:
(§1) 2. Experimental method: normal mice, obese mice and diabetic mice were used for studying glucose tolerance tests Experimental process of OGTT (Oral Glucose Tolerance Test): fasting for 6 hours before the test begins, 60 min after drug administration, glucose was administrated by gavage (drug concentration 0.6 mg/ml, administration volume 5 ml/kg) (2 g/kg glucose was administrated to diabetic mice; 2 g/kg glucose was administrated to obese mice; and 5 g/kg glucose was administrated to normal mice), blood glucose values at 0 min, 15 min, 30 min, 45 min, 60 min and 120 min are respectively determined after glucose administration, […]

Series [1] concerns obese mice (B6.Cg-Lepob/JNju). The series can be described thus: Glucose tolerance test of obese mice. It is filed as in vivo, mouse. Details: AUC0-120 min: unit not given beside the values. The method, then:
as §1

Series [2] deals with diabetic mice (B6.BKS(D)-Leprdb/JNju). Briefly: Glucose tolerance test of diabetic mice (Table 5). It is filed as in vivo, mouse. Further details: AUC0-120 min: unit not given beside the values. As for the experimental part:
as §1

For series [3] the following is noted: CD-1 mouse, 5 mg/kg, oral administration; cited from earlier work.
For series [4] the following is noted: man, 5 mg/subject; cited from earlier work.
Series [5] has as its target humanized recombinant DPP-IV (Homo sapiens (Human), UniProt P27487). Briefly: DPP-IV activity inhibition test in vitro (DPPIV-Glo luminescence). Format: biochemical. The settings on record: DPP-IV, Table 1; read-out: IC50. As for the experimental part: (1) DPP-IV Activity Inhibition Tests In Vitro
DPP-IV could hydrolyze Gly-Pro-Aminoluciferin at room temperature to generate Aminoluciferin, which could produce “glow type” luminescent signals in a luciferase reaction system provided by a DPPIV-Glo™ protease test kit, and the strength of the luminescent signals was in direct proportion to the enzyme activity of DPP-IV.
2.1 humanized recombinant DPP-IV: SIGMA product, article number D3446-10UG.
2.2 DPPIV-Glo™ protease detection kit: Promega product, article number G8351.
3.2 Diluting dipeptidyl peptidase IV (Sigma) to 0.2 ng/ml solution with 10 mM Tris-HCl (pH 8.0), adding the samples to be detected in, per well 25 μl. […] Experimental Results

Counter-ions that a name gives are not always drawn. Like-named read-outs stand apart in the source and are kept apart here. Marks after values point to notes of the source that are not given here.

humanized recombinant DPP-IV, sequence (P27487 whole entry): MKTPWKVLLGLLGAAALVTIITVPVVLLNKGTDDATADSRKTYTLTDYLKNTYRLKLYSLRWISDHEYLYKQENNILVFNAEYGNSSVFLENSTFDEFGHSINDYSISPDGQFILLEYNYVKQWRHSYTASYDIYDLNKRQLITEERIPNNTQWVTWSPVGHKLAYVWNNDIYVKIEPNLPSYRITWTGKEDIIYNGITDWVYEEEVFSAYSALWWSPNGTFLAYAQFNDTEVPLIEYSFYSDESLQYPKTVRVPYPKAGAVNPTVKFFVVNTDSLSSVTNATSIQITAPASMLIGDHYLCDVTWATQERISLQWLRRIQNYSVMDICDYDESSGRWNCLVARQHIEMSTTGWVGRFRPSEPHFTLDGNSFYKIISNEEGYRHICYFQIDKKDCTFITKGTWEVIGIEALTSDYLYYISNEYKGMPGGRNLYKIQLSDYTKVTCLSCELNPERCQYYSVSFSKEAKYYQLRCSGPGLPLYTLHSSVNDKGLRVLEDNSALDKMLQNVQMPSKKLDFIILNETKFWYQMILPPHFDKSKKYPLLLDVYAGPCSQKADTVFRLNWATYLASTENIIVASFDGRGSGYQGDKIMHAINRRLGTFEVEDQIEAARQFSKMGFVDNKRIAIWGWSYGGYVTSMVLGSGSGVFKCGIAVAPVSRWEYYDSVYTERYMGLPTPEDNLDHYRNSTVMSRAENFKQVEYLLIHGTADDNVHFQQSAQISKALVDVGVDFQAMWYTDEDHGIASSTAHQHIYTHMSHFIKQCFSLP

For `CC#CCn1c(N2CCC[C@@H](N)C2)nc2c1c(=O)n(Cc1nc(C)c3ccccc3n1)c(=O)n2C` [Linagliptin, linagliptin, reference compound], the “Blood glucose concentration 0 min” value is reported as 8.64* mmol/L with normal mice (C57BL/6J) (normal mice C57BL/6J, drug at -60 min (0.6 mg/ml, 5 ml/kg), 5 g/kg glucose at 0 min); 10.95 mmol/L in series [1] (obese mice B6.Cg-Lepob/JNju, drug at -60 min (0.6 mg/ml, 5 ml/kg), 2 g/kg glucose at 0 min); 12.09 mmol/L in series [2] (diabetic mice B6.BKS(D)-Leprdb/JNju, drug at -60 min (0.6 mg/ml, 5 ml/kg), 2 g/kg glucose at 0 min). The “Blood glucose concentration 15 min” value in the series on normal mice (C57BL/6J) (normal mice, 15 min after glucose) is given as 14.7*** mmol/L; in series [1] (obese mice, 15 min after glucose), 31.73 mmol/L; in series [2] (diabetic mice, 15 min after glucose), 29.98* mmol/L. For the same compound, the “Blood glucose concentration 30 min” value in the series on normal mice (C57BL/6J) (normal mice, 30 min after glucose) is 10.5*** mmol/L; in series [1] (obese mice, 30 min after glucose) it was 27.98 mmol/L; in series [2] (diabetic mice, 30 min after glucose) it was 20.15*** mmol/L. Besides, the “Blood glucose concentration 45 min” value is 9.5*** mmol/L with normal mice (C57BL/6J) (normal mice, 45 min after glucose); 20.50 mmol/L in series [1] (obese mice, 45 min after glucose); 16.60*** mmol/L in series [2] (diabetic mice, 45 min after glucose). In addition, the “Blood glucose concentration 60 min” value in the series with normal mice (C57BL/6J) (normal mice, 60 min after glucose) is given as 10.14*** mmol/L; in series [1] (obese mice, 60 min after glucose), 16.00* mmol/L; in series [2] (diabetic mice, 60 min after glucose), 15.83** mmol/L. Besides, the “Blood glucose concentration 120 min” value in the series with normal mice (C57BL/6J) (normal mice, 120 min after glucose) is reported as 7.72 mmol/L; in series [1] (obese mice, 120 min after glucose), 11.50 mmol/L; in series [2] (diabetic mice, 120 min after glucose) it was 10.05* mmol/L. Moreover, the AUC0-120 min is 1198*** with normal mice (C57BL/6J) (normal mice, blood glucose AUC); 2230 in series [1] (obese mice, blood glucose AUC); 1987** in series [2] (diabetic mice, blood glucose AUC). Besides, the figures for the “bioavailability (F)” value in series [3] and in series [4] were 18.4% and 30%, respectively.

The IC50 is the concentration that inhibits the measured activity by half. Take `CC#CCn1c(N2CCC[C@@H](N)C2)nc2c1c(=O)n(Cc1ncccc1C(=O)OC)c(=O)n2C` [Compound I-4, 1-[(3-methyl formate-pyridine-2-yl)methyl]-3-methyl-7-(2-butyne-1-yl)-8-[(R)-3-amino-piperidine-1-yl]-xanthine]: the IC50 in series [5] stood at 4.8 nM.

In the case of `CC#CCn1c(N2CCC[C@@H](N)C2)nc2c1c(=O)n(Cc1cc(F)c(F)cc1C#N)c(=O)n2C` [Compound I-2, 1-[(4,5-difluoro-benzonitrile-2-yl)methyl]-3-methyl-7-(2-butyne-1-yl)-8-[(R)-3-amino-piperidine-1-yl]-xanthine], the IC50 in series [5] was 2.1 nM.

Regarding `CC#CCn1c(N2CCC[C@@H](N)C2)nc2c1c(=O)n(Cc1cccc(F)c1C#N)c(=O)n2C` [Compound I-1, 1-[(6-fluorine-benzonitrile-2-yl)methyl]-3-methyl-7-(2-butyne-1-yl)-8-[(R)-3-amino-piperidine-1-yl]-xanthine], the concentration for half-maximal inhibition (IC50) in series [5] was 0.21 nM.
